Row | melting point | SMILES
1 | 171.7 to 171.9 °C | Cn1c(NCCc2cccs2)nc(-c2ccncc2)cc1=O [Compound 19, 2-[[2-(thiophen-2-yl)ethyl]amino]-3-methyl-6-pyridin-4-ylpyrimidin-4(3H)-one]
2 | 169.7 to 169.8 °C | Cn1c(NCCc2ccc(OCc3ccccc3)cc2)nc(-c2ccncc2)cc1=O [Compound 21, 2-[[2-(4-phenylmethoxyphenyl)ethyl]amino]-3-methyl-6-pyridin-4-ylpyrimidin-4(3H)-one]
3 | 175.4 to 175.6 °C | Cn1c(NCCc2ccc(-c3ccccc3)cc2)nc(-c2ccncc2)cc1=O [Compound 22, 2-[[2-(4-phenylphenyl)ethyl]amino]-3-methyl-6-pyridin-4-ylpyrimidin-4(3H)-one]
4 | 218 to 221 °C | O=c1cc(-c2ccncc2)nc(NCCCc2ccccc2)n1Cc1ccccc1 [Compound 28, 2-[[3-(phenyl)propyl]amino]-3-phenylmethyl-6-pyridin-4-ylpyrimidin-4(3H)-one]
5 | 242.7 to 243 °C | COc1ccc2[nH]cc(CCNc3nc(-c4ccncc4)cc(=O)n3C)c2c1 [Compound 30, 2-[[2-(5-methoxy-1H-indol-3-yl)ethyl]amino]-3-methyl-6-pyridin-4-ylpyrimidin-4(3H)-one]
6 | 168.4 to 168.6 °C | Cn1c(NCCc2c[nH]c3ccc(OCc4ccccc4)cc23)nc(-c2ccncc2)cc1=O [Compound 31, 2-[[2-(5-phenylmethoxy-1H-indol-3-yl)ethyl]amino]-3-methyl-6-pyridin-4-ylpyrimidin-4(3H)-one]
7 | 217.2 to 217.3 °C | Cc1cccc2c(CCNc3nc(-c4ccncc4)cc(=O)n3C)c[nH]c12 [Compound 32, 2-[[2-(7-methyl-1H-indol-3-yl)ethyl]amino]-3-methyl-6-pyridin-4-ylpyrimidin-4 (3H)-one]
8 | 211.5 to 211.8 °C | Cn1c(NC2Cc3ccccc3C2)nc(-c2ccncc2)cc1=O [Compound 37, 2-[(indan-2-yl)amino]-3-methyl-6-pyridin-4-ylpyrimidin-4(3H)-one]
9 | 268 to 270 °C | Cn1c(NC2CCCCC2)nc(-c2ccncc2)cc1=O [Compound 46, 2-Cyclohexylamino-3-methyl-6-pyridin-4-yl-3H-pyrimidin-4-one]
10 | 180 to 182 °C | CCCCNc1nc(-c2ccncc2)cc(=O)n1C [Compound 47, 2-Butylamino-3-methyl-6-pyridin-4-yl-3H-pyrimidin-4-one]
11 | 157 to 159 °C | CCCCCNc1nc(-c2ccncc2)cc(=O)n1C [Compound 48, 3-Methyl-2-pentylamino-6-pyridin-4-yl-3H-pyrimidin-4-one]
12 | 133 to 135 °C | CCCCCCNc1nc(-c2ccncc2)cc(=O)n1C [Compound 49, 2-Hexylamino-3-methyl-6-pyridin-4-yl-3H-pyrimidin-4-one]
13 | 121 to 123 °C | CCCCCCCNc1nc(-c2ccncc2)cc(=O)n1C [Compound 50, 2-Heptylamino-3-methyl-6-pyridin-4-yl-3H-pyrimidin-4-one]
14 | 113 to 115 °C | CCCCCCCCCNc1nc(-c2ccncc2)cc(=O)n1C [Compound 52, 3-Methyl-2-nonylamino-6-pyridin-4-yl-3H-pyrimidin-4-one]
15 | 213 to 217 °C | CC(C)CCNc1nc(-c2ccncc2)cc(=O)n1C [Compound 55, 3-Methyl-2-(3-methyl-butylamino)-6-pyridin-4-yl-3H-pyrimidin-4-one]
16 | 218 to 220 °C | Cn1c(NCC2CCCCC2)nc(-c2ccncc2)cc1=O [Compound 56, 2-(Cyclohexylmethyl-amino)-3-methyl-6-pyridin-4-yl-3H-pyrimidin-4-one]
17 | 147 to 150 °C | CCCOCCNc1nc(-c2ccncc2)cc(=O)n1C [Compound 57, 3-Methyl-2-(2-propoxy-ethylamino)-6-pyridin-4-yl-3H-pyrimidin-4-one]
18 | 177 to 180 °C | Cn1c(NCCCC2CCCCC2)nc(-c2ccncc2)cc1=O [Compound 58, 2-(3-Cyclohexyl-propylamino)-3-methyl-6-pyridin-4-yl-3H-pyrimidin-4-one]

Row | melting point | SMILES
19 | 118 to 120 °C | CCOCCCNc1nc(-c2ccncc2)cc(=O)n1C [Compound 59, 2-(3-Ethoxy-propylamino)-3-methyl-6-pyridin-4-yl-3H-pyrimidin-4-one]
20 | 164 to 165 °C | Cn1c(NCCCCCO)nc(-c2ccncc2)cc1=O [Compound 61, 2-(5-Hydroxy-pentylamino)-3-methyl-6-pyridin-4-yl-3H-pyrimidin-4-one]
21 | 159 to 161 °C | Cn1c(NCCCCO)nc(-c2ccncc2)cc1=O [Compound 62, 2-(4-Hydroxy-butylamino)-3-methyl-6-pyridin-4-yl-3H-pyrimidin-4-one]
22 | 95 to 98 °C | CC(C)OCCCNc1nc(-c2ccncc2)cc(=O)n1C [Compound 63, 2-(3-Isopropoxy-propylamino)-3-methyl-6-pyridin-4-yl-3H-pyrimidin-4-one]
23 | 107 to 109 °C | CCCOCCCNc1nc(-c2ccncc2)cc(=O)n1C [Compound 64, 3-Methyl-2-(3-propoxy-propylamino)-6-pyridin-4-yl-3H-pyrimidin-4-one]
24 | 190 to 194 °C | Cn1c(NCCC2CCCC2)nc(-c2ccncc2)cc1=O [Compound 66, 2-(2-Cyclopentyl-ethylamino)-3-methyl-6-pyridin-4-yl-3H-pyrimidin-4-one]
25 | 162 to 163 °C | Cn1c(NCCCN2CCCCC2)nc(-c2ccncc2)cc1=O [Compound 67, 3-Methyl-2-(3-piperidin-1-yl-propylamino)-6-pyridin-4-yl-3H-pyrimidin-4-one]
26 | 81 to 84 °C | CC(=O)OC(CNc1nc(-c2ccncc2)cc(=O)n1C)c1ccccc1 (stereo not drawn) [Compound 69, Acetic acid 2-(1-methyl-6-oxo-4-pyridin-4-yl-1 ,6-dihydro-pyrimidin-2-ylamino)-1-phenyl-ethyl ester]
27 | 107 to 111 °C | Cn1c(NCCC23CC4CC(CC(C4)C2)C3)nc(-c2ccncc2)cc1=O [Compound 70, 2-(2-Adamantan-1-yl-ethylamino)-3-methyl-6-pyridin-4-yl-3H-pyrimidin-4-one]
28 | 98 to 101 °C | Cn1c(NCc2cccc(OCCCO)c2)nc(-c2ccncc2)cc1=O [Compound 71, 2-[3-(3-Hydroxy-propoxy)-benzylamino]-3-methyl-6-pyridin-4-yl-3H-pyrimidin-4-one]
29 | 198 to 201 °C | CC(=O)OCCCOc1cccc(CNc2nc(-c3ccncc3)cc(=O)n2C)c1 [Compound 73, Acetic acid 3-{3-[(1-methyl-6-oxo-4-pyridin-4-yl-1 ,6-dihydro-pyrimidin-2-ylamino)-methyl]-phenoxy}-propyl ester]
30 | 80 to 82 °C | CN(C)CCCOc1cccc(CNc2nc(-c3ccncc3)cc(=O)n2C)c1 [Compound 74, 2-[3-(3-Dimethylamino-propoxy)-benzylamino]-3-methyl-6-pyridin-4-yl-3H-pyrimidin-4-one]
31 | 122 to 124 °C | Cn1c(NCCCc2ccccc2)nc(-c2ccncc2)cc1=O [Compound 78, 3-Methyl-2-(3-phenyl-propylamino)-6-pyridin-4-yl-3H-pyrimidin-4-one]
32 | 143 to 145 °C | O=c1cc(-c2ccncc2)nc(NCCCc2ccccc2)n1CCO [Compound 86, 3-(2-Hydroxy-ethyl)-2-(3-phenyl-propylamino)-6-pyridin-4-yl-3H-pyrimidin-4-one]
33 | 162 to 168 °C | Cn1c(NCCSc2ccccc2)nc(-c2ccncc2)cc1=O [Compound 92, 3-Methyl-2-(2-phenylsulfanyl-ethylamino)-6-pyridin-4-yl-3H-pyrimidin-4-one]
34 | 102 to 105 °C | Cn1c(NCCNc2ccccc2)nc(-c2ccncc2)cc1=O [Compound 93, 3-Methyl-2-(2-phenylamino-ethylamino)-6-pyridin-4-yl-3H-pyrimidin-4-one]
35 | 193 to 194 °C | Cn1c(NCCOc2ccccc2)nc(-c2ccncc2)cc1=O [Compound 94, 3-Methyl-2-(2-phenoxy-ethylamino)-6-pyridin-4-yl-3H-pyrimidin-4-one]
36 | 154 to 156 °C (dec.) | Cn1c(NCCc2ccccn2)nc(-c2ccncc2)cc1=O [Compound 97, 3-Methyl-6-pyridin-4-yl-2(2-pyridin-2-yl-ethylamino)-3H-pyrimidin-4-one]

From patent publication US7378413B2, “2-amino-3-(alkyl)-pyrimidone derivatives” (Sanofi Aventis, priority 2000, dated 2008)
